Reference: patent US6355799B1, “Substituted benzene compounds, process for their preparation, and herbicidal and defoliant compositions containing them” (ISK Americas Incorporated, priority 1997, dated 2002)

What was measured:
Type in all cases: in vivo
[1] = tested on: redroot pigweed (Amaranthus retroflexus, AMARE); test: Pre-emerge test, greenhouse herbicide activity screening; conditions: pre-emerge, rated 14 days after application, 0 = no damage, 100 = complete death
Method in brief: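 Compounds in acetone were track-sprayed at 15-1000 g ai/ha (187 l/ha) on sandy loam pots: pre-emerge one day after seeding, post-emerge at 2-3 leaf stage with 0.25% v/v non-ionic surfactant. Phytotoxicity was rated 14 days later on a 0 (no damage) to 100 (complete death) scale.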

[2] = tested on: barnyardgrass (Echinochloa crus-galli, ECHCG); test: as above; conditions: pre-emerge, rated 14 days after application, 0 = no damage, 100 = complete death
Method in brief: (§1)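 Rating: 0–100 visual injury, 14 DAA. Application: acetone, 187 l/ha, 15–1000 g ai/ha, flat-fan track sprayer with nozzle 40–45 cm above soil or canopy. Post-emerge runs used 0.25% v/v surfactant on 2–3 leaf plants.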

[3] = tested on: green foxtail (Setaria viridis, SETVI); test: as above; conditions: pre-emerge, rated 14 days after application, 0 = no damage, 100 = complete death
Method in brief: as §1

[4] = tested on: ivyleaf morningglory (Ipomoea hederacea, IPOHE); test: as above; conditions: pre-emerge, rated 14 days after application, 0 = no damage, 100 = complete death
Method in brief: as §1

[5] = tested on: johnsongrass (Sorghum halepense, SORHA); test: as above; conditions: pre-emerge, rated 14 days after application, 0 = no damage, 100 = complete death
Method in brief: as §1

[6] = tested on: lambsquarters (Chenopodium album, CHEAL); test: as above; conditions: pre-emerge, rated 14 days after application, 0 = no damage, 100 = complete death
Method in brief: as §1

[7] = tested on: large crabgrass (Digitaria sanguinalis, DIGSA); test: as above; conditions: pre-emerge, rated 14 days after application, 0 = no damage, 100 = complete death
Method in brief: as §1

[8] = tested on: sicklepod (Cassia obtusifolia, CASOB); test: as above; conditions: pre-emerge, rated 14 days after application, 0 = no damage, 100 = complete death
Method in brief: as §1

[9] = tested on: velvetleaf (Abutilon theophrasti, ABUTH); test: as above; conditions: pre-emerge, rated 14 days after application, 0 = no damage, 100 = complete death
Method in brief: as §1

[10] = tested on: field corn (Zea mays L., var. Dekalb 535, CORN); test: Pre-emerge test, crop safety; conditions: pre-emerge, rated 14 days after application, 0 = no damage, 100 = complete death
Method in brief: (§2)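 Visual ratings on a 0-100 scale (0 no damage, 100 all plants dead) were taken at 14 days after treatment. Rates of 15-1000 g ai/ha in acetone, 187 l/ha, were sprayed onto soil one day after planting (pre-emerge) or onto 2-3 leaf plants with 0.25% v/v surfactant (post-emerge).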

[11] = tested on: upland rice (Oryza sp., var. Tebonnet, RICE); test: Pre-emerge test, crop safety; conditions: pre-emerge, rated 14 days after application, 0 = no damage, 100 = complete death
Method in brief: as §2

[12] = tested on: barnyardgrass (Echinochloa crus-galli, ECHCG); test: Post-emerge test, greenhouse herbicide activity screening; conditions: phytotoxicity rating 0-100 (0 no damage, 100 complete death), 14 days after application
Method in brief: (§3)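 Compounds in acetone were track-sprayed at 187 l/ha, 15–1000 g ai/ha, onto sandy loam pots. Pre-emerge seeds were sown one day before spraying, with surface watering afterwards. Post-emerge plants were at the 2–3 leaf stage and sprayed with 0.25% v/v non-ionic surfactant. Injury was rated 0–100 at 14 days.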

[13] = tested on: common ragweed (Ambrosia artemisizfolia L., AMBEL); test: as above; conditions: phytotoxicity rating 0-100 (0 no damage, 100 complete death), 14 days after application
Method in brief: as §3

[14] = tested on: green foxtail (Setaria viridis, SETVI); test: as above; conditions: phytotoxicity rating 0-100 (0 no damage, 100 complete death), 14 days after application
Method in brief: as §3

[15] = tested on: ivyleaf morningglory (Ipomoea hederacea, IPOHE); test: as above; conditions: phytotoxicity rating 0-100 (0 no damage, 100 complete death), 14 days after application
Method in brief: as §3

[16] = tested on: johnsongrass (Sorghum halepense, SORHA); test: as above; conditions: phytotoxicity rating 0-100 (0 no damage, 100 complete death), 14 days after application
Method in brief: as §3

[17] = tested on: lambsquarters (Chenopodium album, CHEAL); test: as above; conditions: phytotoxicity rating 0-100 (0 no damage, 100 complete death), 14 days after application
Method in brief: as §3

[18] = tested on: large crabgrass (Digitaria sanguinalis, DIGSA); test: as above; conditions: phytotoxicity rating 0-100 (0 no damage, 100 complete death), 14 days after application
Method in brief: as §3

[19] = tested on: redroot pigweed (Amaranthus retroflexus, AMARE); test: as above; conditions: phytotoxicity rating 0-100 (0 no damage, 100 complete death), 14 days after application
Method in brief: as §3

[20] = tested on: sicklepod (Cassia obtusifolia, CASOB); test: as above; conditions: phytotoxicity rating 0-100 (0 no damage, 100 complete death), 14 days after application
Method in brief: as §3

[21] = tested on: velvetleaf (Abutilon theophrasti, ABUTH); test: as above; conditions: phytotoxicity rating 0-100 (0 no damage, 100 complete death), 14 days after application
Method in brief: as §3

[22] = tested on: field corn (Zea mays L., var. Dekalb 535, CORN); test: Post-emerge test, crop safety; conditions: phytotoxicity rating 0-100 (0 no damage, 100 complete death), 14 days after application
Method in brief: (§4)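 Plants grown in 10 cm pots of sandy loam mix received acetone-dissolved compounds through a moving flat-fan nozzle. Doses ranged from 15 to 1000 g ai/ha. Pre-emerge pots were seeded one day earlier, post-emerge pots 8–21 days earlier. Fourteen days on, each pot was graded 0–100 for damage.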

[23] = tested on: upland rice (Oryza sp., var. Tebonnet, RICE); test: Post-emerge test, crop safety; conditions: phytotoxicity rating 0-100 (0 no damage, 100 complete death), 14 days after application
Method in brief: as §4

## CCOC(=O)C(C)Nc1c(OC)c(Cl)cc(F)c1-n1c(=O)cc(C(F)(F)F)n(C)c1=O (stereo not shown) [Compound 1-55]
[1]; 63 g ai/ha
  Pre-emerge Herbicidal Activity AMARE (phytotoxicity rating, scale 0-100): 70
[1]; 250 g ai/ha
  Pre-emerge Herbicidal Activity AMARE (phytotoxicity rating, scale 0-100): 70
[2]; 63 g ai/ha
  Pre-emerge Herbicidal Activity ECHCG (phytotoxicity rating, scale 0-100): 10
[2]; 250 g ai/ha
  Pre-emerge Herbicidal Activity ECHCG (phytotoxicity rating, scale 0-100): 10
[3]; 63 g ai/ha
  Pre-emerge Herbicidal Activity SETVI (phytotoxicity rating, scale 0-100): 0
[3]; 250 g ai/ha
  Pre-emerge Herbicidal Activity SETVI (phytotoxicity rating, scale 0-100): 0
[4]; 63 g ai/ha
  Pre-emerge Herbicidal Activity IPOHE (phytotoxicity rating, scale 0-100): 0
[4]; 250 g ai/ha
  Pre-emerge Herbicidal Activity IPOHE (phytotoxicity rating, scale 0-100): 0
[5]; 63 g ai/ha
  Pre-emerge Herbicidal Activity SORHA (phytotoxicity rating, scale 0-100): 20
[5]; 250 g ai/ha
  Pre-emerge Herbicidal Activity SORHA (phytotoxicity rating, scale 0-100): 20
[6]; 63 g ai/ha
  Pre-emerge Herbicidal Activity CHEAL (phytotoxicity rating, scale 0-100): 95
[6]; 250 g ai/ha
  Pre-emerge Herbicidal Activity CHEAL (phytotoxicity rating, scale 0-100): 95
[7]; 63 g ai/ha
  Pre-emerge Herbicidal Activity DIGSA (phytotoxicity rating, scale 0-100): 50
[7]; 250 g ai/ha
  Pre-emerge Herbicidal Activity DIGSA (phytotoxicity rating, scale 0-100): 50
[8]; 63 g ai/ha
  Pre-emerge Herbicidal Activity CASOB (phytotoxicity rating, scale 0-100): 0
[8]; 250 g ai/ha
  Pre-emerge Herbicidal Activity CASOB (phytotoxicity rating, scale 0-100): 0
[9]; 63 g ai/ha
  Pre-emerge Herbicidal Activity ABUTH (phytotoxicity rating, scale 0-100): 90
[9]; 250 g ai/ha
  Pre-emerge Herbicidal Activity ABUTH (phytotoxicity rating, scale 0-100): 90
[10]; 63 g ai/ha
  Pre-emerge crop damage CORN (phytotoxicity rating, scale 0-100): 10
[10]; 250 g ai/ha
  Pre-emerge crop damage CORN (phytotoxicity rating, scale 0-100): 10
[11]; 63 g ai/ha
  Pre-emerge crop damage RICE (phytotoxicity rating, scale 0-100): 0
[11]; 250 g ai/ha
  Pre-emerge crop damage RICE (phytotoxicity rating, scale 0-100): 0
[12]; 63 g ai/ha
  Post-emerge Herbicidal Activity ECHCG: 0
[12]; 250 g ai/ha
  Post-emerge Herbicidal Activity ECHCG: 0
[13]; 63 g ai/ha
  Post-emerge Herbicidal Activity AMBEL: 70
[13]; 250 g ai/ha
  Post-emerge Herbicidal Activity AMBEL: 50
[14]; 63 g ai/ha
  Post-emerge Herbicidal Activity SETVI: 0
[14]; 250 g ai/ha
  Post-emerge Herbicidal Activity SETVI: 40
[15]; 63 g ai/ha
  Post-emerge Herbicidal Activity IPOHE: 30
[15]; 250 g ai/ha
  Post-emerge Herbicidal Activity IPOHE: 95
[16]; 63 g ai/ha
  Post-emerge Herbicidal Activity SORHA: 0
[16]; 250 g ai/ha
  Post-emerge Herbicidal Activity SORHA: 0
[17]; 63 g ai/ha
  Post-emerge Herbicidal Activity CHEAL: 0
[17]; 250 g ai/ha
  Post-emerge Herbicidal Activity CHEAL: 20
[18]; 63 g ai/ha
  Post-emerge Herbicidal Activity DIGSA: 0
[18]; 250 g ai/ha
  Post-emerge Herbicidal Activity DIGSA: 30
[19]; 63 g ai/ha
  Post-emerge Herbicidal Activity AMARE: 10
[19]; 250 g ai/ha
  Post-emerge Herbicidal Activity AMARE: 10
[20]; 63 g ai/ha
  Post-emerge Herbicidal Activity CASOB: 10
[20]; 250 g ai/ha
  Post-emerge Herbicidal Activity CASOB: 20
[21]; 63 g ai/ha
  Post-emerge Herbicidal Activity ABUTH: 80
[21]; 250 g ai/ha
  Post-emerge Herbicidal Activity ABUTH: 90
[22]; 63 g ai/ha
  Post-emerge Herbicidal Activity CORN (crop damage): 0
[22]; 250 g ai/ha
  Post-emerge Herbicidal Activity CORN (crop damage): 10
[23]; 63 g ai/ha
  Post-emerge Herbicidal Activity RICE (crop damage): 0
[23]; 250 g ai/ha
  Post-emerge Herbicidal Activity RICE (crop damage): 0
